Here are results for one molecule from US8735375B2, “Therapeutic compositions” (Leo Laboratories Limited, priority 2005, dated 2014).

The structures appear in SMILES notation.

The nature of data set [1]: Stability of I3A at various pH's (buffers). The following applies: room temperature. The data set is classed as physicochemical. On the procedure:
The stability of I3A was investigated at pH 4.5 in two buffers i.e. monopotassium phosphate/disodium phosphate and acetic acid/ammonium acetate for 24 h at room temperature.

Data set [2] is described as follows: Kinetic solubility of I3A in 20% v/v ethanol/citrate buffer (pH 3.0). The following applies: aqueous with cosolvent or surfactant or cyclodextrin, kinetic from dmso stock, 25° C. The data set is classed as physicochemical.
The nature of data set [3]: Preliminary in vitro diffusion study (Franz cell). Conditions: human stratum corneum, at detectable levels. The data set is classed as in vitro ADME. From the text:
Once the stability of I3A in the excipients and penetration enhancers had been established, a preliminary in vitro diffusion experiment could be conducted to determine the permeation of stratum corneum by I3A from some simple formulations. The Franz diffusion cell is designed to mimic the physiological and anatomical conditions of skin in situ. It is an air/fluid phase static cell, which comprises a donor compartment, receptor compartment and a side arm sampling port (see FIG. 1). Surgically excised skin is positioned between the two halves with the stratum corneum facing the donor compartment to allow for drug application.
An initial in vitro diffusion experiment using a simple formulation of I3A in miglyol was performed. […] This formulation was used in later diffusion cell experiments as a negative control and also served to confirm the integrity of the stratum corneum, as if there is no diffusion of drug from this formulation, it can be assumed that the stratum corneum remains intact.
A formulation of I3A was prepared in phosphate buffer (pH 4.5) with β-cyclodextrins (Captisol®) added with a view to increasing the solubility and stability of I3A, and the flux of the drug. A second formulation in DMSO, a known penetration enhancer, was also prepared for comparative purposes, as well as a formulation in miglyol, which served as a negative control. […]

Data set [4] can be described thus: Stability study of I3A in solvents at 4-8° C. The data set is classed as physicochemical. Conditions: 14 days. As for the experimental part:
The stability of I3A in various solvents at 4-8° C. was investigated. A stock solution of 1.26 mg of I3A was weighed out and dissolved in 2 ml acetone. This stock solution was used to prepare the stability samples as follows:
Aliquots of 100 μl of stock solution were transferred to individual glass HPLC vials via a Hamilton syringe, with careful rinsing and drying of the syringe between each sample. The samples were dried down by air jet and then 0.5 ml of the appropriate test solvent system added. The solvent systems were tested in triplicate and are listed below:
Blank samples were also prepared in triplicate using 100 μl of acetone in place of the stock solution. The blank samples were then dried down and 0.5 ml acetone added to each vial. The vials were all crimped, sealed with Parafilm® and placed at 4-8° C. for the duration of the stability study. HPLC analysis was performed on the samples on Day 0, Day 1, Day 5 and Day 14 of the stability study. The samples were prepared for the HPLC assay as described below:
The stability samples were removed from 4-8° C. and left at ambient temperature for 30 mins. Aliquots of 100 μl were transferred to fresh glass HPLC vials using a Hamilton syringe, with careful, rinsing and drying of the syringe between each sample. To facilitate drying of the samples, 0.5 ml of acetone was added to each vial and then the samples were dried down by air jet. The samples were reconstituted with 1 ml of acetonitrile and analysed by HPLC using the chromatographic conditions specified above.

For the molecule `C/C=C(/C)C(=O)O[C@H]1C(C)=C[C@]23C(=O)[C@H](C=C(CO)[C@@H](O)[C@]12O)[C@H]1[C@@H](C[C@H]3C)C1(C)C` [Formulation I3A, ingenol-3-angelate], in data set [1] (pH 4.5, monopotassium phosphate/disodium phosphate and acetic acid/ammonium acetate buffers, 24 h), the “stability (predominance of isoform 'b')” value was “stable”. In addition, in data set [1] (pH 5.5, 6.5 and 7.0, 14 days), the stability result is “decrease with an increase in pH”. For the same molecule, the kinetic solubility – broadly, the concentration staying in solution when a stock, usually in DMSO, is diluted into the medium – in data set [2] was 509.7 ± 3 µg/mL. Besides, in data set [3], the “diffusion of I3A across the stratum corneum” value is reported as “diffuses across the stratum corneum”. The “stability (predominance of peak 'b')” value in data set [4] (100% v/v acetone) and in data set [4] (100% v/v acetonitrile) was “stable” each time. Besides, in data set [4] (protic solvents (methanol, methanol/water, water)), the isomer formation result was “formation of isomer ‘a’ and then isomer ‘c’ increases rapidly”.
